Reference: ChEMBL document CHEMBL1147808, “Protein tyrosine phosphatase 1B inhibitory activity of triterpenes isolated from Astilbe koreana” (Bioorg Med Chem Lett, 2006)

Target: T1, Tyrosine-protein phosphatase non-receptor type 1 (Homo sapiens, UniProt P18031)
T1 sequence (P18031 whole entry): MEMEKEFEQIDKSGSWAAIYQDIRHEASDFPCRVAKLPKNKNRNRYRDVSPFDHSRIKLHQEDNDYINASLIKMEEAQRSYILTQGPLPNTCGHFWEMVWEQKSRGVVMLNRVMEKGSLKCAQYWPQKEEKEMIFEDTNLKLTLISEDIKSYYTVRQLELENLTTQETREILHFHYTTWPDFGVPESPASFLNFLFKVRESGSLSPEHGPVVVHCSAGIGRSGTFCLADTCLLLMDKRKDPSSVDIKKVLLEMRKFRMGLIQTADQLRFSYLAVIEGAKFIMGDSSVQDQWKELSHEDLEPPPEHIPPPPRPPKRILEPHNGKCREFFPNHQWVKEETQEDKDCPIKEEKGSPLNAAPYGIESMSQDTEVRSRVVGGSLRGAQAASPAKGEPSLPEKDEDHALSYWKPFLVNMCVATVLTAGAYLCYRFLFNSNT
Assay: Inhibition of human recombinant PTP1B

| SMILES | IC50 |
| --- | --- |
| CC1(C)CC[C@]2(C)CC[C@]3(C(=O)O)C(=CC[C@@H]4[C@@]5(C)CC[C@@H](O)[C@](C)(CO)C5CC[C@]43C)[C@@H]2C1 (some centres undefined) | 11.7 µM |
| COC(=O)[C@@]12CC[C@@]3(C)CCC(C)(C)C[C@H]3C1=CC[C@@H]1[C@@]3(C)CC[C@H](O)C(C)(C)C3CC[C@]12C (some centres undefined) | 16 µM |
| COC(=O)[C@@]12CCC3C(=CC[C@H]4[C@@]3(C)CCC3C(C)(C)[C@@H](O)CC[C@@]34C)[C@@H]1CC(C)(C)CC2 (some centres undefined) | 14.2 µM |
| CC1(C)CC[C@]2(C)CC[C@]3(C(=O)O)C(=CC[C@@H]4[C@@]5(C)CC[C@H](O)C(C)(C)C5[C@H](O)C[C@]43C)[C@@H]2C1 (some centres undefined) | 12.8 µM |
| CC(=O)O[C@H]1CC[C@@]2(C)C(CC[C@]3(C)[C@@H]2CC=C2[C@@H]4CC(C)(C)CC[C@]4(C)CC[C@]23C(=O)O)C1(C)C (some centres undefined) | 8.5 µM |
| CC1(C)[C@@H](O[C@H]2O[C@H](C(=O)O)[C@@H](O)[C@H](O)[C@H]2O[C@@H]2O[C@H](C(=O)O)[C@@H](O)[C@H](O)[C@H]2O)CC[C@]2(C)[C@H]3C(=O)C=C4[C@@H]5C[C@@](C)(C(=O)O)CC[C@]5(C)CC[C@@]4(C)[C@]3(C)CC[C@@H]12 [GLYCYRRHIZIN] | > 100 µM |

The next molecules have a lower IC50 than those just listed; values first:

| IC50 | SMILES |
| --- | --- |
| 6.8 µM | CC1(C)CC[C@]2(C)CC[C@]3(C(=O)O)C(=CC[C@@H]4[C@@]5(C)CCC(=O)C(C)(C)[C@@H]5CC[C@]43C)[C@@H]2C1 |
| 5.2 µM | CC1(C)CC[C@]2(C)CC[C@]3(C(=O)O)C(=CC[C@@H]4[C@@]5(C)CC[C@H](O)C(C)(C)C5CC[C@]43C)[C@@H]2C1 (some centres undefined) |
| 4.9 µM | C[C@H]1[C@H](C)CC[C@]2(C)CC[C@]3(C(=O)O)C(=CC[C@@H]4[C@@]5(C)CC[C@H](O)C(C)(C)C5CC[C@]43C)[C@H]12 (some centres undefined) |
